ChEMBL document CHEMBL4190290, “Synthesis and antiangiogenic activity study of new hop chalcone Xanthohumol analogues” (Eur J Med Chem, 2017)
Activity calls are given as the source filed them. No cut-off for these calls is given here.

How the values were obtained:
HUVEC [1] = test: Antiangiogenic activity in fibronectin pretreated HUVEC assessed as reduction in cell adhesion at 10 uM after 90 mins by DAPI staining based microscopic method; assay type: functional; settings: Homo sapiens
HUVEC [2] = test: Antiangiogenic activity in HUVEC assessed as inhibition of cell morphogenesis by measuring reduction in capillary like structure formation at 10 uM after 6 hrs by inverted microscopic method; assay type: functional, cell-based; settings: Homo sapiens
HUVEC [3] = test: Anti-invasive activity in HUVEC at 10 uM after 24 hrs by DAPI staining based Boyden chamber method; assay type: functional, cell-based; settings: Homo sapiens
HUVEC [4] = test: Antimigratory activity in HUVEC at 10 uM after 6 hrs by DAPI staining based Boyden chamber method; assay type: functional, cell-based; settings: Homo sapiens
HUVEC [5] = test: Cytotoxicity against HUVEC assessed as reduction in cell viability at 20 uM up to 96 hrs by MTT assay; assay type: cell-based; settings: human
HUVEC [6] = test: Cytotoxicity against HUVEC assessed as reduction in cell viability at 10 uM after 96 hrs by MTT assay; assay type: cell-based; settings: human
HUVEC [7] = test: Cytotoxicity against HUVEC assessed as reduction in cell viability up to 20 uM up to 96 hrs by MTT assay; assay type: cell-based; settings: human
HUVEC [8] = test: Cytotoxicity against HUVEC assessed as induction of apoptosis at 10 uM after 24 hrs by Annexin V/7-AAD staining based flow cytometry; assay type: cell-based; settings: human

Q: What does the source list for COCOc1cc(OC)c(C(=O)/C=C/c2ccccc2F)c(O)c1CC=C(C)C?
A: Activity (HUVEC [1]): Active; Antiangiogenic activity (active/not active) (HUVEC [2]): Active

Q: For COc1cc(O)c(CC=C(C)C)c(O)c1C(=O)/C=C/c1ccc(F)cc1, which Activity (HUVEC [1]) is on record?
A: Its Activity is “Active”.

Q: What about the “Antiangiogenic activity (active/not active)” value (HUVEC [2]) of the same compound?
A: Its value is “Active”.

Q: And the Activity (HUVEC [3])?
A: The Activity was “inactive”.

Q: And the Activity (HUVEC [4])?
A: Its Activity is “Active”.

Q: With COc1ccc(/C=C/C(=O)c2c(OC)cc(O)c(CC=C(C)C)c2O)c(F)c1 as the compound, how does the Activity (HUVEC [5]) read?
A: Its Activity is “Toxic”.

Q: And the Activity (HUVEC [1])?
A: Its Activity is “Active”.

Q: And the “Antiangiogenic activity (active/not active)” value (HUVEC [2])?
A: Its value is “Active”.

Q: What about the Activity (HUVEC [3]) of the same compound?
A: The Activity was “inactive”.

Q: What about the Activity (HUVEC [4]) of the same compound?
A: The Activity was “Active”.

Q: With COCOc1cc(OC)c(C(=O)/C=C/c2ccc(OC)c(F)c2)c(O)c1CC=C(C)C as the compound, how does the Activity (HUVEC [1]) read?
A: The Activity was “Active”.

Q: What about the “Antiangiogenic activity (active/not active)” value (HUVEC [2]) of the same compound?
A: Its value is “Active”.

Q: What about the Activity (HUVEC [3]) of the same compound?
A: Its Activity is “inactive”.

Q: And the Activity (HUVEC [4])?
A: Its Activity is “Active”.

Q: COc1cc(O)c(CC=C(C)C)c(O)c1C(=O)/C=C/c1ccccc1F was tested. Which Activity (HUVEC [1]) did it give?
A: Its Activity is “Active”.

Q: And the “Antiangiogenic activity (active/not active)” value (HUVEC [2])?
A: Its value is “Active”.

Q: What does the source list for COCOc1cc(OC)c(C(=O)/C=C/c2ccc(F)cc2)c(O)c1CC=C(C)C?
A: Activity (HUVEC [3]): inactive; Activity (HUVEC [4]): Active

Q: How did the Activity (HUVEC [6]) turn out when COCOc1cc(OC)c(C(=O)/C=C/c2ccc(OC)c(F)c2)c(OCOC)c1CC=C(C)C was run?
A: Its Activity is “Toxic”.

Q: And the Activity (HUVEC [1])?
A: The Activity was “Active”.

Q: What about the “Antiangiogenic activity (active/not active)” value (HUVEC [2]) of the same compound?
A: Its value is “Active”.

Q: And the Activity (HUVEC [3])?
A: Its Activity is “inactive”.

Q: What about the Activity (HUVEC [4]) of the same compound?
A: Its Activity is “Active”.

Q: How did the Activity (HUVEC [5]) turn out when COc1cc(O)c(CC=C(C)C)c(O)c1C(=O)/C=C/c1ccc(O)cc1 [XANTHOHUMOL] was run?
A: Its Activity is “Toxic”.

Q: And the Activity (HUVEC [1])?
A: Its Activity is “Active”.

Q: What about the “Antiangiogenic activity (active/not active)” value (HUVEC [2]) of the same compound?
A: Its value is “Active”.

Q: And the Activity (HUVEC [3])?
A: The Activity was “Active”.

Q: And the Activity (HUVEC [4])?
A: Its Activity is “Active”.

Q: COCOc1cc(OC)c(C(=O)/C=C/c2ccc(OC)cc2F)c(O)c1CC=C(C)C was tested. Which Activity (HUVEC [7]) did it give?
A: Its Activity is “Non-Toxic”.

Q: And the Activity (HUVEC [1])?
A: Its Activity is “Active”.

Q: What about the “Antiangiogenic activity (active/not active)” value (HUVEC [2]) of the same compound?
A: The value was “Active”.

Q: And the Activity (HUVEC [3])?
A: Its Activity is “inactive”.

Q: With COc1ccc(/C=C/C(=O)c2c(OC)cc(O)c(CC=C(C)C)c2O)cc1F as the compound, how does the Activity (HUVEC [1]) read?
A: The Activity was “Active”.

Q: What about the “Antiangiogenic activity (active/not active)” value (HUVEC [2]) of the same compound?
A: Its value is “Active”.

Q: What about the Activity (HUVEC [3]) of the same compound?
A: Its Activity is “inactive”.

Q: What about the Activity (HUVEC [4]) of the same compound?
A: The Activity was “Active”.

Q: For COCOc1cc(OC)c(C(=O)/C=C/c2ccc([N+](=O)[O-])cc2)c(O)c1CC=C(C)C, which Activity (HUVEC [5]) is on record?
A: The Activity was “Toxic”.

Q: And the Activity (HUVEC [8])?
A: Its Activity is “Toxic”.

Q: What about the Activity (HUVEC [1]) of the same compound?
A: Its Activity is “Active”.

Q: And the “Antiangiogenic activity (active/not active)” value (HUVEC [2])?
A: The value was “Active”.

Q: And the Activity (HUVEC [3])?
A: Its Activity is “inactive”.

Q: What about the Activity (HUVEC [4]) of the same compound?
A: The Activity was “Active”.

Q: What does the source list for COCOc1cc(OC)c(C(=O)/C=C/c2ccc(OC)cc2F)c(OCOC)c1CC=C(C)C?
A: Activity (HUVEC [6]): Toxic; Activity (HUVEC [1]): Active; Antiangiogenic activity (active/not active) (HUVEC [2]): Active; Activity (HUVEC [3]): inactive; Activity (HUVEC [4]): Active
